Results published in PMC8582576, “New Therapeutic Strategy for Overcoming Multidrug Resistance in Cancer Cells with Pyrazolo[3,4-d]pyrimidine Tyrosine Kinase Inhibitors” (Cancers, 2021).
“And” between values parts separate entries of the source, which are not always exact repeats. Equal entries are not always repeated. “Also recorded” adds a separate entry of the source.

Tests used:
NCI-H460/R [1] = test: MTT assay, reversal of DOX resistance in NCI-H460/R cells; type: cell-based, human; conditions: for Relative Reversal of DOX resistance: IC50 DOX alone / IC50 in combination
Method: (§1) The metabolic activity of viable cells was measured by MTT assay. Cells grown in 25 cm^2 tissue flasks were trypsinized, seeded into flat-bottomed 96-well tissue culture plates, and incubated overnight. Subsequently, the cells were treated with increasing concentrations of Si306, pro-Si306, and dasatinib (1–25 μM), as well as with Si221 and pro-Si221 (2.5–50 μM) for 72 h. In addition, the combined effects of Si306, pro-Si306, and pro-Si221with DOX as well as with PTX were studied in NCI-H460/R and DLD1-TxR cells, respectively. In simultaneous treatments that lasted 72 h in NCI-H460/R and DLD1-TxR cells, two concentrations of Si306, pro-Si306, and pro-Si221 (0.2 μM and 0.5 μM) were combined with increasing concentrations of DOX and PTX (0.1–2 μM). After treatment, MTT was added to each well at a final concentration of 0.2 mg/mL for 3 h. Then, formazan produced in cells with intact/viable mitochondria was dissolved in 200 μL of DMSO, and the absorbance was measured at 570 nm on a Multiskan Sky Microplate Spectrophotometer (ThermoFisher Scientific, United States). The IC50 value is defined as the concentration of a drug that decreases cell viability by 50% and was calculated by nonlinear regression analysis using GraphPad Prism 6.0 for Windows (La Jolla, CA, USA). Relative reversal was calculated as a relation between the IC50 values of DOX and PTX alone obtained in NCI-H460/R and DLD1-TxR cells, respectively and the IC50 values of DOX and PTX in combination with Pro-Si306 and Pro-Si221.

[2] = tested on: NCI-H460, NCI-H460/R, DLD1, DLD1-TxR; test: MTT cell viability assay, two sensitive/MDR cancer cell line pairs; type: cell-based; conditions: Homo sapiens, summary over the four cell lines, 72 h
Method: as §1

NCI-H460 = test: MTT cell viability assay, NCI-H460; type: cell-based; conditions: Homo sapiens, 72 h, read-out: Decrease in cell viability, IC50
Method: as §1

NCI-H460/R [3] = test: MTT cell viability assay, NCI-H460/R; type: cell-based, human; conditions: for IC50: Homo sapiens, NCI-H460/R (MDR), MTT, 72 h, read-out: Decrease in cell viability, IC50; for fold lower IC50 in MDR NCI-H460/R than in sensitive NCI-H460 cells: NCI-H460/R vs NCI-H460, MTT
Method: as §1

DLD1 = test: MTT cell viability assay, DLD1; type: cell-based; conditions: Homo sapiens, DLD-1, 72 h, read-out: Decrease in cell viability, IC50
Method: as §1

P-gp [4] = target: T1, P-gp (Homo sapiens, UniProt P08183); test: Rho 123 accumulation assay (P-gp activity) in NCI-H460/R cells; conditions: for P-gp inhibition by Rho 123 intracellular accumulation / IC50 / kinetics of P-gp inhibition (Rho123 accumulation): NCI-H460/R; for P-gp inhibition by Rho 123 intracellular accumulation: 10 µM, 30-min treatment, compared with Dex-VER; for IC50: IC50 for P-gp inhibition, Rho123 accumulation, 30 min; for kinetics of P-gp inhibition (Rho123 accumulation): 24-, 48-, 96-, 168-h treatments, 10 µM pro-Si306, pro-Si221, 5 and 10 nM TQ
Method: (§3) The accumulation of fluorescent P-gp substrate Rho 123 was analyzed by flow cytometry. The intensity of fluorescence was proportional to Rho 123 accumulation in the cell. […] NCI-H460 and DLD1 cells were used as a positive control for Rho 123 accumulation. All cell lines were seeded in adherent 6-well plates and grown overnight. In simultaneous treatment that lasted 30 min, 5 μM Rho 123 was applied along with 10 μM of Si306, pro-Si306, Si221, pro-Si221, dasatinib, and Dex-VER. […] Samples were incubated for 30 min at 37 °C in 5% CO2. […] At the end of the accumulation period, the cells were trypsinized, pelleted by centrifugation, washed with PBS, and placed in ice-cold PBS. The samples were kept on ice in the dark until analysis on a CyFlow Space Partec flow cytometer (Sysmex Partec GmbH, Görlitz, Germany). The fluorescence of Rho 123 was detected on fluorescence channel 1 (FL1-H) at 530 nm. Three independent experiments were performed for each experimental setting. A minimum of 10,000 events was assayed for each sample, and the obtained results were analyzed using Summit Dako Software (ver. 4.3, Fort Collins, CO, USA).

DLD1-TxR [5] = test: MTT cell viability assay, DLD1-TxR; type: cell-based; conditions: Homo sapiens, DLD1-TxR (MDR), 72 h, read-out: Decrease in cell viability, IC50
Method: as §1

DLD1-TxR [6] = test: MTT assay, reversal of PTX resistance in DLD1-TxR cells; type: cell-based, human; conditions: for Relative Reversal of PTX resistance: IC50 PTX alone / IC50 in combination
Method: as §1

P-gp [7] = target: T1, P-gp; test: P-gp ATPase activity assay (Pgp-Glo); type: biochemical; design: purchased Promega, Madison, WI, USA; conditions: 5 µM and 20 µM; verapamil positive control
Method: P-gp function depends on ATP hydrolysis energy, and compounds that interact with P-gp can stimulate or inhibit its ATPase activity. P-gp ATPase activity is usually stimulated by its substrates. The Pgp-GloTM assay system detects a compound’s effect on recombinant human P-gp in a cell membrane fraction. P-gp ATPase activity was measured using the luminescent Pgp-Glo^TM assay kit according to manufacturer’s instructions. Briefly, ATP was first incubated with P-gp; then, the P-gp ATPase reaction was stopped, and the remaining un-metabolized ATP was detected as a luciferase-generated luminescent signal. P-gp-dependent decreases in luminescence reflect ATP consumption by P-gp; thus, the greater the decrease in signal, the higher the P-gp activity. […] Na3VO4 is a noncompetitive inhibitor of P-gp ATPase activity. The difference in the luminescent signal, expressed as relative light units (RLU), between Na3VO4-treated samples and untreated samples represents the basal P-gp ATPase activity (ΔRLU basal). The difference in the luminescent signal between Na3VO4-treated samples and samples treated with the tested compounds represents P-gp ATPase activity in the presence of the tested compounds. […] The luminescence of samples treated with 5 μM and 20 μM of Si306, pro-Si306, and pro-Si221 was measured using a luminometer microplate reader (CHAMELEONTMV, Hidex, Turku, Finland).

P-gp expression [8] = test: Flow cytometric analysis of P-gp expression in NCI-H460/R cells; type: cell-based, human; conditions: 48-h treatment, Si306, pro-Si306 5 and 10 µM, pro-Si221 1 and 2 µM, TQ 5 and 10 nM
Method: (§2) The P-gp expression level in NCI-H460/R and DLD1-TxR was measured by flow cytometry. […] After 48 h, cells were collected by trypsinization, washed in PBS, and then directly immuno stained by FITC-conjugated anti-P-gp antibody according to the manufacturer’s protocol.

P-gp expression [9] = test: Flow cytometric analysis of P-gp expression in DLD1-TxR cells; type: cell-based, human; conditions: 48-h treatment, Si306, pro-Si306 5 and 10 µM, pro-Si221 1 and 2 µM, TQ 5 and 10 nM
Method: as §2

P-gp [10] = target: T1, P-gp; test: Rho 123 accumulation assay (P-gp activity) in DLD1-TxR cells; conditions: for P-gp inhibition by Rho 123 intracellular accumulation / kinetics of P-gp inhibition (Rho123 accumulation) / IC50: DLD1-TxR; for P-gp inhibition by Rho 123 intracellular accumulation: 10 µM, 30-min treatment, compared with Dex-VER; for kinetics of P-gp inhibition (Rho123 accumulation): 24-, 48-, 96-, 168-h treatments, 10 µM pro-Si306, 1 and 2 µM pro-Si221, 5 and 10 nM TQ; for IC50: IC50 for P-gp inhibition, Rho123 accumulation, 30 min
Method: as §3

T1 sequence (P08183 whole entry): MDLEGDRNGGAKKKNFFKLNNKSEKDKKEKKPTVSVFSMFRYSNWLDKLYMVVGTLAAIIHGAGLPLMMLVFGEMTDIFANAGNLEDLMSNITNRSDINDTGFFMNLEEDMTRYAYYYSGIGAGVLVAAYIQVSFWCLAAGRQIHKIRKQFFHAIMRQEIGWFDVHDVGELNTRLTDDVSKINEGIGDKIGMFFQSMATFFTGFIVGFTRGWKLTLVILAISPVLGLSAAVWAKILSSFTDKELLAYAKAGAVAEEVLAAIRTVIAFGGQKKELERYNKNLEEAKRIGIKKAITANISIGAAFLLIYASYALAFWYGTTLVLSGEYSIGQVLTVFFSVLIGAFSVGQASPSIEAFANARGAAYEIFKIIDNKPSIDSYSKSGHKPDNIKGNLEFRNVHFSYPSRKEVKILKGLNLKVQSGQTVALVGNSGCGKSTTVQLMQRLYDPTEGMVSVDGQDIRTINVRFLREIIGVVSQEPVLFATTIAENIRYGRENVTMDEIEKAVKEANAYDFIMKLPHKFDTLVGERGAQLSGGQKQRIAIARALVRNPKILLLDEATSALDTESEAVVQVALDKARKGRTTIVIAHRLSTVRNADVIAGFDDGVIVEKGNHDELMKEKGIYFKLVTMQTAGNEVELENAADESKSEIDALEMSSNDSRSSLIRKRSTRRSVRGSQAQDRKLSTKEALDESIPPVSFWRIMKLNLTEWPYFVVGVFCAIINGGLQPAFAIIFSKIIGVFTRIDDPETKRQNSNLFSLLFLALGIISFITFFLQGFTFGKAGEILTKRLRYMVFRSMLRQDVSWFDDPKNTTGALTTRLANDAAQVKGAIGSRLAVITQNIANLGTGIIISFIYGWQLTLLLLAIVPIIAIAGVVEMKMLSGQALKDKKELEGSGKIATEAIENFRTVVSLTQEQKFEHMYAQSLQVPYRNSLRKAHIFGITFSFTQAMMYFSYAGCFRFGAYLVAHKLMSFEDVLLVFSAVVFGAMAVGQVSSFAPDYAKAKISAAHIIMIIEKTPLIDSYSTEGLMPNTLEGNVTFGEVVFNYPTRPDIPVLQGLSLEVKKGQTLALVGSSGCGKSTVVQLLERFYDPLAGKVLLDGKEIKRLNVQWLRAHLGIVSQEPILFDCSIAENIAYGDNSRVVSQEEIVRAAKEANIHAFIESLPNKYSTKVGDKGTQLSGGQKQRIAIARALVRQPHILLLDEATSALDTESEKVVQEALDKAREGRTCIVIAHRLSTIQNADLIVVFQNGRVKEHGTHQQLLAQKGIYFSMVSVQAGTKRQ

| Structure (SMILES) | IC50 [2] [µM] | IC50 (NCI-H460) [µM] | IC50 (NCI-H460/R [3]) [µM] | IC50 (DLD1) [µM] | P-gp inhibition by Rho 123 intracellular accumulation (P-gp [4]) | IC50 (DLD1-TxR [5]) [µM] | effect on ATPase activity of P-gp (P-gp [7]) | effect on P-gp expression (protein level) (P-gp expression [8]) | effect on P-gp expression (protein level) (P-gp expression [9]) | P-gp inhibition by Rho 123 intracellular accumulation (P-gp [10]) | kinetics of P-gp inhibition (Rho123 accumulation) (P-gp [10]) | IC50 (P-gp [10]) | IC50 (P-gp [4]) | kinetics of P-gp inhibition (Rho123 accumulation) (P-gp [4]) | further results |
| --- | --- | --- | --- | --- | --- | --- | --- | --- | --- | --- | --- | --- | --- | --- | --- |
| COc1cccc2c1C(=O)c1c(O)c3c(c(O)c1C2=O)C[C@@](O)(C(=O)CO)C[C@@H]3O[C@H]1C[C@H](N)[C@H](O)[C@H](C)O1 [DOX, doxorubicin, reference compound] | – | – | – | – | – | – | – | – | – | – | – | – | – | – | IC50 (NCI-H460/R [1]; Homo sapiens, MTT, 72 h, read-out: IC50 of DOX alone): 0.905 ± 0.0444 µM |
| Cc1nc(Nc2ncc(C(=O)Nc3c(C)cccc3Cl)s2)cc(N2CCN(CCO)CC2)n1 [Dasatinib, reference compound] | < 10 | 3.93 ± 0.295 | 6.88 ± 0.605 | 3.24 ± 0.411 | did not show potential to inhibit P-gp | 2.9 ± 0.223 | – | – | – | – | – | – | – | – | – |
| CC(=O)O[C@H]1C(=O)[C@@]2(C)[C@H]([C@H](OC(=O)c3ccccc3)[C@]3(O)C[C@H](OC(=O)[C@H](O)[C@@H](NC(=O)c4ccccc4)c4ccccc4)C(C)=C1C3(C)C)[C@]1(OC(C)=O)CO[C@@H]1C[C@@H]2O [PTX, paclitaxel, reference compound] | – | – | – | – | – | – | – | – | – | – | – | – | – | – | IC50 (DLD1-TxR [6]; Homo sapiens, MTT, 72 h, read-out: IC50 of PTX alone): 1.05 ± 0.115 µM |
| CN1CCN(CCOC(=O)N(Cc2ccccc2Cl)c2ncnc3c2cnn3CC(Cl)c2ccc(Br)cc2)CC1 (stereo not drawn) [Pro-Si221] | < 10 | 4.27 ± 0.509 | 5.14 ± 0.573 | 9.8 ± 1.15 | considerably more potent than that observed with Dex-VER | 5.7 ± 0.543 | potential to inhibit the ATPase activity of P-gp; also recorded: highest inhibitory effect on ATPase activity | less pronounced effect on the increase in P-gp expression | tendency to decrease the P-gp expression | considerably more potent than that observed with Dex-VER | decline until 96 h when it reached stable P-gp inhibition | 669 ± 61 nM | 612 ± 72 nM | continued to decrease until 48 h when it reached stability and was sustained even after 168 h | Relative Reversal of PTX resistance (DLD1-TxR [6]; SFK inhibitor 0.2 µM): 2.0; Relative Reversal of PTX resistance (DLD1-TxR [6]; SFK inhibitor 0.5 µM): 3.2; inhibition at 30 min, 1 µM (P-gp [10]; human, DLD1-TxR cells, probe Rho 123 (5 µM)): 100%; Relative Reversal of DOX resistance (NCI-H460/R [1]; SFK inhibitor 0.2 µM): 1.8; Relative Reversal of DOX resistance (NCI-H460/R [1]; SFK inhibitor 0.5 µM): 7.1; inhibition at 30 min, 1 µM (P-gp [4]; human, NCI-H460/R cells, probe Rho 123 (5 µM)): 100% |
| CN1CCN(CCOC(=O)N(c2cccc(Br)c2)c2nc(SCCN3CCOCC3)nc3c2cnn3CC(Cl)c2ccccc2)CC1 (stereo not drawn) [Pro-Si306] | < 10 | 2.41 ± 0.376 | 0.897 ± 0.102 | 2.45 ± 0.346 | considerably more potent than that observed with Dex-VER | 1.87 ± 0.128 | potential to inhibit the ATPase activity of P-gp | less pronounced effect on the increase in P-gp expression | tendency to decrease the P-gp expression | considerably more potent than that observed with Dex-VER | reached stability after 96 h | 3000 nM and 2950 nM | 6200 nM and 6170 nM | reached stability after 96 h | Relative Reversal of PTX resistance (DLD1-TxR [6]; SFK inhibitor 0.2 µM): 1.5; Relative Reversal of PTX resistance (DLD1-TxR [6]; SFK inhibitor 0.5 µM): 2.5; Relative Reversal of DOX resistance (NCI-H460/R [1]; SFK inhibitor 0.2 µM): 3.2; Relative Reversal of DOX resistance (NCI-H460/R [1]; SFK inhibitor 0.5 µM): 10.2; fold lower IC50 in MDR NCI-H460/R than in sensitive NCI-H460 cells (NCI-H460/R [3]): more than 2 fold |
| Clc1ccccc1CNc1ncnc2c1cnn2CC(Cl)c1ccc(Br)cc1 (stereo not drawn) [Si221] | – | 14.6 ± 1.48 | 18.1 ± 2.08 | 34.1 ± 2.32 | did not modulate the activity of P-gp | 11.6 ± 1.29 | – | – | – | did not modulate the activity of P-gp | – | – | – | – | – |
| ClC(Cn1ncc2c(Nc3cccc(Br)c3)nc(SCCN3CCOCC3)nc21)c1ccccc1 (stereo not drawn) [Si306] | < 10 | 6.24 ± 0.685 | 1.89 ± 0.184 | 3.93 ± 0.679 | considerably more potent than that observed with Dex-VER | 2.56 ± 0.183 | potential to inhibit the ATPase activity of P-gp | significantly increased P-gp expression | tendency to decrease the P-gp expression | considerably more potent than that observed with Dex-VER | – | 6400 nM and 6440 nM | 13300 nM | – | fold lower IC50 in MDR NCI-H460/R than in sensitive NCI-H460 cells (NCI-H460/R [3]): more than 2 fold |
| COc1cc2c(cc1OC)CN(CCc1ccc(NC(=O)c3cc(OC)c(OC)cc3NC(=O)c3cnc4ccccc4c3)cc1)CC2 [TQ, tariquidar, reference compound] | – | – | – | – | – | – | – | increased the expression of P-gp | increased the expression of P-gp | – | reached stable P-gp inhibition after 48 h that was sustained until 168 h | – | – | reached stable P-gp inhibition after 48 h that was sustained until 168 h | IC50 (P-gp [10]; TQ values in nM (footnote a)): 0.925 ± 0.155 nM; IC50 (P-gp [4]; TQ values in nM (footnote a)): 1.07 ± 0.174 nM |
